Test results reported in ChEMBL document CHEMBL1158358, “Synthesis, antimicrobial and cytotoxic activities of some 5-arylidene-4-thioxo-thiazolidine-2-ones” (Eur J Med Chem, 2009).

What was measured:
Type in all cases: functional
Pseudomonas aeruginosa = test: Antimicrobial activity against Pseudomonas aeruginosa UFPEDA 39 at 30 ug/disk after 24 hrs by disk diffusion method; settings: UFPEDA 39, 24 h, read-out: IZ
Escherichia coli = test: Antimicrobial activity against Escherichia coli UFPEDA 224 at 30 ug/disk after 24 hrs by disk diffusion method; settings: UFPEDA 224, 24 h, read-out: IZ
Serratia marcescens = test: Antimicrobial activity against Serratia marcescens UFPEDA 398 at 30 ug/disk after 24 hrs by disk diffusion method; settings: UFPEDA 398, 24 h, read-out: IZ
[1] = system: Mycolicibacterium smegmatis; test: Antimicrobial activity against Mycobacterium smegmatis UFPEDA 71 at 30 ug/disk after 24 hrs by disk diffusion method; settings: UFPEDA 71, 24 h, read-out: IZ

## NC[C@H]1O[C@H](O[C@H]2[C@H](O)[C@@H](O[C@H]3O[C@H](CO)[C@@H](O)[C@H](N)[C@H]3O)[C@H](N)C[C@@H]2N)[C@H](O)[C@@H](O)[C@@H]1O [KANAMYCIN]
Pseudomonas aeruginosa
  zone of inhibition at 30 µg/disc: 20 mm
Escherichia coli
  zone of inhibition at 30 µg/disc: 15 mm
Serratia marcescens
  zone of inhibition at 30 µg/disc: 45 mm
[1]
  zone of inhibition at 30 µg/disc: 40 mm
